The record followed here is US20230172920A1, “DOSING REGIMEN FOR TREATING A DISEASE MODULATED BY CSF-1R” (Novartis AG, priority 2020, published 2023).

The structures appear in SMILES notation. Read-outs that look alike come from different tables or passages of the source.

Data set [1] has as its system microglia. The data set is described as follows: Microglia depletion in lumbar spinal cord, Iba1 qPCR, 8-week SOD1G93A efficacy study (RD-2019-00092). The class given is in vivo, SOD1G93A mouse. The conditions noted are these: for microglia depleted (lumbar spinal cord): 8 weeks. The procedure: BLZ945 was dosed over an 8-week period in a mouse model of ALS (in house data). BLZ945 was tested for efficacy in preventing or delaying disease progression in the SOD1G93A ALS mouse (RD-2019-00092). […] Normal body weight gain is also impaired in this model. These physiological impairments are considered as mechanistic readouts given that they best recapitulate the clinical disease phenotype (Turner et al 2013). Animals were dosed from 8 to 16 weeks of age with daily (q.d) doses of BLZ945 at either 65 mg/kg, 170 mg/kg, or 170 mg/kg delivered intermittently with a 7 day ON/7 day OFF regimen.
Microglia were depleted by greater than 90% with the high dose (170 mg/kg) of BLZ945 and by about 50% with the low dose (65 mg/kg). […] Blood and CNS exposure to BLZ945 were measured at 3 hours post-dose on the day of necropsy (Table 8). BLZ945 spinal cord exposure ratios (relative to blood) were consistent across dose groups at approximately 0.4 (Table 9).
FIG. 11: Microglia depletion in the lumbar spinal cord, assessed by Iba1 transcript expression by qPCR. Samples were collected at necropsy on the final day of dosing of the eight-week study. Values are group means±SD (n=12-15). Data are presented as fold changes in comparison to the SOD1 vehicle-treated group. Statistical analyses were by Kruskal-Wallis test with Dunn's multiple comparison

Data set [2] can be described thus: Blood and brain exposure in mice (RD-2019-00100). The settings on record: for Kp at 5 days: read-out: ratio of brain to blood exposures. The data set is classed as in vivo. The procedure:
Several studies were performed to understand PK/PD relationships for CNS microglia clearance in mice. In the first study (RD-2019-00100) mice were treated once daily (qd) for between 1 and 5 consecutive days with a dose of 169 mg/kg BLZ945. Additionally, two dose groups received 169 mg/kg BLZ945 for 5 consecutive days followed by either 3 or 7 days of drug withdrawal (washout). […] Pharmacokinetic analysis was performed on blood and brain samples taken from each group at 3 hours after the final dose on the indicated necropsy day. […] Exposures dropped by more than 1000-fold following the washout period (FIG. 8 B).
FIG. 8: (A) Microglial depletion in the cortex, as assessed by Iba1/Aif-1 immunohistological staining at necropsy. Sections were analyzed for total number of microglia cell bodies per sample area. Values are group means±SD (n=3). (B) Exposure of BLZ945 in blood and brain 3 hours after the last dose on the day of necropsy. Values are group means (n=3).
In a follow-up study (RD-2019-00100), mice were treated with BLZ945 for 5 consecutive days with a range of doses from 7 to 169 mg/kg. The two lowest doses of 7 mg/kg and 20 mg/kg were ineffective for microglial depletion. […] Here the ratio of brain to blood exposures was approximately 30% at the four lowest doses and approximately 55% at the highest dose (FIG. 9 B).
FIG. 9: Dose-dependent reduction of microglia. (A) Mice were treated for 5 consecutive days with BLZ945 at the indicated doses. Samples were analyzed histologically by Iba1/Aif-1 staining and quantified for total microglia cell bodies per sample area. Data are group means±SD (n=3). (B) Exposure of BLZ945 in blood and brain following 5 consecutive days of dosing at multiple doses. Values are group means±SD (n=3).

A short description of data set [3]: Blood, brain and spinal cord exposure in SOD1G93A mice, b.i.d. dosing (RD-2019-00111). The settings on record: mouse, brain and spinal cord relative to blood, three hours after the final dose, read-out: brain and spinal cord drug exposure relative to blood. The class given is in vivo. As to the method:
Dosing was examined in the SOD1G93A mouse model of ALS, the most commonly used rodent ALS model (RD-2019-00111). Twice daily dosing (b.i.d.) was examined after 5 consecutive dosing days. Microglia were depleted in the cortex by approximately 25% and 75% following treatment with 50 mg/kg and 80 mg/kg BLZ945. BLZ945 dosed b.i.d. at 10 mg/kg was not effective (FIG. 10 A).
FIG. 10: BLZ945-mediated microglial depletion in the cortex, as assessed by Iba1/Aif-1 immunohistological staining (A) or in spinal cord by qPCR analysis (B) Values are group means±SD (n=3). (C and D) Exposure of BLZ945 in blood and CNS brain and spinal cord 3 hours after the final dose of the study.

The nature of data set [4]: AST/ALT elevation across single agent dose groups (clinical data, CTCAE). The data set is classed as in vivo, human. As to the method:
A comparison of AST and ALT elevation across single agent dose groups for the compound of Formula (I) was performed for the once per week (Q1WV) dosing regimen and the 4 days on/10 days off dosing regimen over a range of dosages. FIGS. 6 and 7 show the AST and ALT elevations, respectively. The Common Terminology Criteria for Adverse Events (CTCAE) was used to evaluate AST and ALT levels.

Data set [5] concerns tumor associated macrophages (TAM) and Tregs. Put plainly: Tumor infiltrating macrophages and Tregs by flow cytometry (MC38 model). The class given is in vivo, mouse. The conditions noted are these: BLZ945 4 days on/3 days off, single agent and with anti-PD-1. As to the method: In order to access the dynamics of the tumor associated immune cells a repeat study using only the 4 days on/3 days off schedule as a single agent and in combination with anti-PD-1 was performed.
FIG. 5 Analysis of tumor infiltrating macrophages (FIG. 5A) and Tregs (FIG. 5B) upon treatment with BLZ945 in a 4 days on/3 days off schedule on day 10 (A) and day 14 (B) and in combination with anti-PD-1 by flow cytometry. Statistical significance was calculated using a two-tailed, unpaired, non-parametric Mann-Whitney Test was performed to compare treatment to control groups.

`CNC(=O)c1cc(Oc2ccc3nc(N[C@@H]4CCCC[C@H]4O)sc3c2)ccn1` [BLZ945, 4-((2-(((1R,2R)-2-hydroxycyclohexyl)amino)benzo[d]thiazol-6-yl)oxy)-N-methylpicolinamide]: the “microglia depleted (lumbar spinal cord)” value is on record as “about 50%” in data set [1] (65 mg/kg q.d.) and “greater than 90%” in data set [1] (170 mg/kg q.d. continuous). Also, the “microglia recovery compared to high dose animals” value in data set [1] (170 mg/kg 7 day ON/7 day OFF, sacrificed at 7 days off) was “greater than 50%”. Also, in data set [2] (169 mg/kg qd 5 days, then 3 or 7 days washout), the “drop of exposures following washout” value is recorded as “more than 1000 fold”. For the same compound, the “accumulation with daily dosing (blood and brain exposures)” value in data set [2] (169 mg/kg qd, consecutive dosing days) is listed as “lack of accumulation”. In data set [2] (7 to 169 mg/kg, 5 consecutive days), the “dose dependence of blood and brain exposures” value was “linear increases in both blood and brain exposures with increased doses”. The Kp at 3 h in data set [2] (mouse, brain relative to blood, 169 mg/kg qd, 1-5 days, 3 hours after final dose) is about 0.5; in data set [3], about 0.3. Further, the Kp at 5 days is about 0.3 in data set [2] (mouse, brain relative to blood, four lowest doses (7-100 mg/kg), 5 consecutive days) and about 0.55 in data set [2] (mouse, brain relative to blood, highest dose (169 mg/kg), 5 consecutive days). For the same compound, in data set [4] (4 days on/10 days off compared with Q1W dosing regimen, single agent), the “AST and ALT elevations” value is recorded as “better controlled”. Also, the ALT/AST levels entry in data set [4] (4 days on/10 days off schedule) is listed as “recover to baseline before next dose”. Also, the “AST and ALT levels” value in data set [4] (Q1W dose, even at lowest dose of 300 mg) is given as “spikes above the G2 level”. In addition, the TAM in tumor result in data set [5] (after 10 and 14 days of treatment) is on record as “significant decrease”. The Tregs in tumor result in data set [5] (day 10 after treatment start) is given as “transient decrease”.
